Data reported in publication PMC4832832 (Archiv Der Pharmazie, 2015).
Entries after “also recorded” stand apart in the source; their conditions may differ. Like-named read-outs stand apart in the source and are kept apart here.

What was measured:
Punta Toro virus = assay: microbe, parasite or virus in culture; assay type: cell-based
Parainfluenza‐3 virus = assay: organism not typed; assay type: cell-based
HeLa cells = conditions: HeLa cell cultures
Vero cells = conditions: Vero cell cultures
Reovirus‐1 = assay: organism not typed; assay type: cell-based
Sindbis virus = assay: microbe, parasite or virus in culture; assay type: cell-based
Coxsackie virus B4 [1] = assay type: cell-based; conditions: for EC50: read-out: EC50 Coxsackie virus B4, reduce virus-induced cytopathogenicity by 50%
[2] = test system: Vesicular stomatitis virus; assay type: cell-based; conditions: for EC50: read-out: EC50 Vesicular stomatitis virus
[3] = test system: Respiratory syncytial virus; assay type: cell-based; conditions: for inhibitory activity against respiratory syncytial virus (in words): HeLa cells
Coxsackie virus B4 [4] = assay type: cell-based; conditions: Vero cell cultures
[5] = test system: Varicella-zoster virus (VZV) TK-(Oka strain); assay type: cell-based; conditions: HEL cells
[6] = test system: Varicella-zoster virus (VZV) TK+(Oka strain); assay type: cell-based; conditions: for activity against TK+ VZV strain (in words): HEL cells; for activity against varicella‐zoster virus (in words): strain not given
[7] = microscopically detectable alteration of normal cell morphology
[8] = Vero cell cultures, unit of the DS-10.000 line
[9] = HeLa cell cultures, unit of the DS-10.000 line

With NC(=O)c1ncn([C@@H]2O[C@H](CO)[C@@H](O)[C@H]2O)n1 [Ribavirin, ribavirin] the EC50 (Punta Toro virus; Punta Toro virus, Vero, read-out: EC50 Punta Toro virus) was 112 µM, the EC50 (Parainfluenza‐3 virus; Vero, read-out: EC50 Parainfluenza‐3 virus) was 85 µM and the Minimum cytotoxic concentration (HeLa cells; [7]) was >250 µM. For the same molecule, the Minimum cytotoxic concentration (Vero cells; [7]) was >250 µM, the EC50 (Reovirus‐1; Vero, read-out: EC50 Reovirus‐1) was > 250 µM and the EC50 (Sindbis virus; Sindbis virus, Vero, read-out: EC50 Sindbis virus) was > 250 µM.
With “Diethyl [(4‐(1‐(2,3,5‐tri‐O‐benzoyl‐β‐D‐ribofuranos‐1‐yl)‐1,2,3‐triazol‐4‐yl)phenyl)(2‐bromophenylamino)methyl]phosphonate [Compound 4c]” the Minimum cytotoxic concentration (HeLa cells; [7]) was >100 µM, the EC50 (Coxsackie virus B4 [1]; HeLa cell cultures) was > 100 µM and the EC50 [2] was > 100 µM. For the same molecule, the “inhibitory activity against respiratory syncytial virus (in words)” value [3] was “slight inhibition; also recorded: modest inhibitory activity”.
For “Diethyl [(4‐(1‐(2,3,5‐tri‐O‐benzoyl‐β‐D‐ribofuranos‐1‐yl)‐1,2,3‐triazol‐4‐yl)phenyl)(2‐chlorophenylamino)methyl]phosphonate [Compound 4b]”, the Minimum cytotoxic concentration (HeLa cells; [7]) was >100 µM, the EC50 (Coxsackie virus B4 [1]; HeLa cell cultures) was > 100 µM and the EC50 [2] was > 100 µM. For the same molecule, the “inhibitory activity against respiratory syncytial virus (in words)” value [3] was “slight inhibition; also recorded: modest inhibitory activity”.
In the case of “Diethyl [(4‐(1‐(2,3,5‐tri‐O‐benzoyl‐β‐D‐ribofuranos‐1‐yl)‐1,2,3‐triazol‐4‐yl)phenyl)(4‐bromophenylamino)methyl]phosphonate [Compound 4d]”, the Minimum cytotoxic concentration (HeLa cells; [7]) is reported as >100 µM, the EC50 (Coxsackie virus B4 [1]; HeLa cell cultures) is reported as > 100 µM and the EC50 [2] is reported as > 100 µM.
For “Diethyl [(4‐(1‐(2,3,5‐tri‐O‐benzoyl‐β‐D‐ribofuranos‐1‐yl)‐1,2,3‐triazol‐4‐yl)phenyl)(benzylamino)methyl]phosphonate [Compound 4h]”, the “activity against Coxsackie virus B4 (in words)” value (Coxsackie virus B4 [4]) was “some activity; also recorded: modest inhibitory activity”, the EC50 (Coxsackie virus B4 [4]; read-out: EC50 Coxsackie virus B4, reduce virus-induced cytopathogenicity by 50%) was 20 µM and the Minimum cytotoxic concentration (Vero cells; [7]) was >100 µM. The “activity against Coxsackie virus B4 (in words)” value (Coxsackie virus B4 [1]; HeLa cells) was “no activity”.
“Diethyl [(4‐(1‐(β‐D‐ribofuranos‐1‐yl)‐1,2,3‐triazol‐4‐yl)phenyl)(2‐bromophenylamino)methyl]phosphonate [Compound 5c]” was tested, and the “activity against TK− VZV strain (in words)” value [5] was “weak activity”, the “activity against TK+ VZV strain (in words)” value [6] was “weak activity” and the “activity against varicella‐zoster virus (in words)” value [6] was “modest activity”.
With “Diethyl [(4‐(1‐(β‐D‐ribofuranos‐1‐yl)‐1,2,3‐triazol‐4‐yl)phenyl)(2‐naphthalenylamino)methyl]phosphonate [Compound 5g]” the “activity against TK− VZV strain (in words)” value [5] was “weak activity”, the “activity against TK+ VZV strain (in words)” value [6] was “weak activity” and the “activity against varicella‐zoster virus (in words)” value [6] was “modest activity”.
“Diethyl [(4‐(1‐(β‐D‐ribofuranos‐1‐yl)‐1,2,3‐triazol‐4‐yl)phenyl)(4‐chloro‐2‐methylphenylamino)methyl]phosphonate [Compound 5f]” was tested, and the “activity against TK− VZV strain (in words)” value [5] was “weak activity”, the “activity against TK+ VZV strain (in words)” value [6] was “weak activity” and the “activity against varicella‐zoster virus (in words)” value [6] was “modest activity”.
In the case of “dextran sulfate [DS‐10.000, reference compound]”, the “EC50 Punta Toro virus” value (Punta Toro virus; [8]) is reported as 8.9 µg/mL, the “EC50 Coxsackie virus B4” value (Coxsackie virus B4 [4]; unit of the DS-10.000 line) is reported as >100 µg/mL and the “EC50 Parainfluenza‐3 virus” value (Parainfluenza‐3 virus; [8]) is reported as >100 µg/mL. The Minimum cytotoxic concentration (HeLa cells; unit of the DS-10.000 line) was >100 µg/mL, the Minimum cytotoxic concentration (Vero cells; unit of the DS-10.000 line) was >100 µg/mL and the “EC50 Coxsackie virus B4” value (Coxsackie virus B4 [1]; [9]) was >100 µg/mL. For the same molecule, the “EC50 Vesicular stomatitis virus” value [2] was 12 µg/mL, the “EC50 Reovirus‐1” value (Reovirus‐1; [8]) was >100 µg/mL and the “EC50 Sindbis virus” value (Sindbis virus; [8]) was 8.9 µg/mL. The “EC50 Respiratory syncytial virus” value [3, 9] was 1.3 ± 0.7 µg/mL.
